Test results: patent US9561249B2, “Pharmaceutical formulations of nitrite and uses thereof” (TheraVasc Inc., priority 2013, dated 2017)
Read-outs that look alike come from different tables or passages of the source.

Columns and labels:
subjects with PAD [1] = details: oral BID for 10 weeks vs placebo
Protocol: Quality of life was measured by two questionnaires: WIQ and RAND 36. The two questionnaires were administered in the same sequence: WIQ first, followed by the RAND 36. The WIQ was a disease-specific instrument that measures community-based walking. The questionnaire consisted of four subscales (pain severity, distance, speed, and stairs). The WIQ was verbally administered to the subject by the Investigator, or designee. The RAND 36 was an instrument that measured general health issues. Study staff directed subjects to complete the RAND 36 on their own. […] No family members or other individuals were allowed to answer questions or complete the questionnaire for the subject. All questionnaires were completed directly on the written source document pages. The study coordinator reviewed all questionnaires to ensure that there was only one response to each question, each question has been answered and any necessary corrections have been initialed and dated by the Investigator (or designee) or subject, accordingly.

subjects with PAD [2] = tested on: subjects with PAD
Protocol: The primary objective of this early stage clinical study was to evaluate the safety and tolerability of multiple doses of twice daily 40 mg and 80 mg sodium nitrite compared with placebo over a 10 week treatment period. […] Finally, the relationship between doses, plasma concentration of sodium nitrite, and pharmacodynamic effects were characterized and evaluated. In this study, multiple assessments of biological activity and ambulatory function were made during standardized tests of arterial reactivity and claudication-limited exercise. The pharmacodynamic assessments included: brachial artery flow-mediated vasodilation (FMD), six-minute walk test, selected biomarkers of interest, quality of life questionnaires (WIQ & RAND 36).
All doses were given as a twice-daily oral dose for 10 weeks. On the day following the 10 week dosing period and completion of efficacy assessments, subjects in each treatment arm entered a 6 day dose-escalation period (dose-doubling). Subjects in the 40 mg sodium nitrite BID group were dose-escalated to 80 mg sodium nitrite BID for 6 days, and subjects in the 80 mg sodium nitrite BID were dose-escalated to 160 mg sodium nitrite BID for 6-days. Placebo subjects doubled the number of placebo capsules taken BID. All study medication was stopped at the end of the 6-day dose-escalation period.
The following safety parameters were assessed: medical and medication history, concomitant medication usage, physical examination, vital signs, 12-lead ECG, clinical chemistries, CBC, urinalysis, and adverse events. Urine pregnancy testing was completed for women of child-bearing potential who have not been surgically sterilized. Assessment of acute adverse events (i.e., drop in blood pressure, dizziness) was performed after administration of 1st dose for each dose level of sodium nitrite. Dose-limiting toxicity (DLT) was defined as Grade 3 and clinically significant hematological events, particularly MetHb.
As defined by the International Conference on Harmonisation (ICH), an AE was any untoward medical occurrence in a patient or clinical investigation subject administered an investigational product, whether or not the event was considered related to the investigational product. An AE was therefore any unfavorable and unintended sign (including an abnormal laboratory finding), symptom, or disease (new or exacerbated) temporally associated with the use of the investigational product and was collected starting when IP was administered.

[3] = Six-Day Dose-Escalation Period Only, 40 mg group (escalated to 80 mg BID)
[4] = Six-Day Dose-Escalation Period Only, 80 mg group (escalated to 160 mg BID)

O=NO [sodium nitrite]
WIQ assessment in walking distance (subjects with PAD [1]): no change | WIQ stair climbing (subjects with PAD [1]): trend toward improvement | WIQ walking speed (subjects with PAD [1]): trend toward improvement | RAND 36 quality of life assessment (subjects with PAD [1]; sentence names the 40 mg group): trend toward improvement | Number of TEAEs by Relationship to Study Drug: Not Related (subjects with PAD [2]; 40 mg BID): 10 | Number of TEAEs by Relationship to Study Drug: Possibly Related (subjects with PAD [2]; 40 mg BID): 22 | Number of TEAEs by Relationship to Study Drug: Probably Related (subjects with PAD [2]; 40 mg BID): 0 | Number of TEAEs by Severity: Mild (subjects with PAD [2]; 40 mg BID): 26 | Number of TEAEs by Severity: Moderate (subjects with PAD [2]; 40 mg BID): 6 | Number of TEAEs by Relationship to Study Drug: Not Related (subjects with PAD [2]; 80 mg BID): 9 | Number of TEAEs by Relationship to Study Drug: Possibly Related (subjects with PAD [2]; 80 mg BID): 24 | Number of TEAEs by Relationship to Study Drug: Probably Related (subjects with PAD [2]; 80 mg BID): 6 | Number of TEAEs by Severity: Mild (subjects with PAD [2]; 80 mg BID): 31 | Number of TEAEs by Severity: Moderate (subjects with PAD [2]; 80 mg BID): 8 | Number (%) of Subjects with at least one AE (subjects with PAD [2]; Overall, 40 mg BID): 12(63.2%) | Number (%) of Subjects with at least one TEAE (subjects with PAD [2]; Overall, 40 mg BID): 12(63.2%) | Number of AEs (subjects with PAD [2]; Overall, 40 mg BID): 32 | Number of SAEs (subjects with PAD [2]; Overall, 40 mg BID): 0 | Number of TEAEs (subjects with PAD [2]; Overall, 40 mg BID): 32 | Number (%) of Subjects with at least one AE (subjects with PAD [2]; Overall, 80 mg BID): 14(7738%) | Number (%) of Subjects with at least one TEAE (subjects with PAD [2]; Overall, 80 mg BID): 14(7738%) | Number of AEs (subjects with PAD [2]; Overall, 80 mg BID): 40 | Number of SAEs (subjects with PAD [2]; Overall, 80 mg BID): 0 | Number of TEAEs (subjects with PAD [2]; Overall, 80 mg BID): 39 | Number (5) of Subjects with at least one TEAE (subjects with PAD [2]; [3]): 3(15.8%) | Number of TEAEs (subjects with PAD [2]; [3]): 3 | Number (5) of Subjects with at least one TEAE (subjects with PAD [2]; [4]): 7(38.9%) | Number of TEAEs (subjects with PAD [2]; [4]): 11 | Severe adverse effects (subjects with PAD [2]; treated groups overall): no severe adverse effects were observed
